The target of this test is Serine/threonine-protein kinase mTOR (Homo sapiens) (UniProt P42345). Kind of test: mTOR FRB domain ligand binding – biophysical, NMR (AID 1648). The settings on record: NMR binding to FRB domain, chemical shift.

The record followed here is PubChem BioAssay AID1648 (Sanford-Burnham Center for Chemical Genomics, 2009).

SMILES strings stand for the structures. Activity calls are given as the source filed them. The rule behind the calls is not given here.

Serine/threonine-protein kinase mTOR (Homo sapiens), sequence (P42345 2015-2114): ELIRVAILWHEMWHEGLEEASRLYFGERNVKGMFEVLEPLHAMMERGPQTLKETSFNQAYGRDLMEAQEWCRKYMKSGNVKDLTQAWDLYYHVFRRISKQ

Turning to `c1ccc(Cn2c(Nn3cnnc3)nc3ccccc32)cc1`, the Kd – broadly, a measure of binding affinity in units of concentration – was > 4 mM (inactive). Consider `CC(C)Nc1nc2n(c(=O)n1)CCN2C(C)C`, for which the Kd is > 4 mM (inactive). `O=C1COc2ccc(C(=O)c3ccccc3)cc2CN1`: the Kd was > 4 mM (inactive). Consider `CCCNC(CC(=O)Nc1cccnc1)C(=O)O` (centres undefined), for which the Kd was > 4 mM (inactive). As for `Cn1c(O)c(/C=C2\C=CC=N2)c(=O)[nH]c1=S`, the Kd is > 4 mM (inactive). Turning to `COc1ccc(C(C)=O)c(O)c1`, the Kd was > 4 mM (inactive). As to `Oc1ccc2c(c1)OCC1(O)Cc3cc(O)c(O)cc3C21` (centres undefined), the Kd is > 4 mM (inactive). On to `Cc1cc(NC(=O)c2ccc3c(c2)OCO3)no1`, for which the Kd is > 4 mM (inactive). On to `COc1ccc(-c2cc(=O)c3ccccc3o2)cc1OC`, for which the Kd is > 4 mM (inactive).

With `COc1ccc(C(=O)/C=C2\NC(=S)NC2=O)cc1`, the Kd was > 4 mM (inactive). Consider `Cn1c(=O)cc(O)c2ccccc21`, for which the Kd is > 4 mM (inactive).

On to `CC1(C)C(=O)C=C[C@@]2(C)C1C=C[C@]1(C)C2CC[C@@]2(C)[C@H](c3ccoc3)OC(=O)C3OC321` (some centres undefined), for which the Kd was > 4 mM (inactive).

On to `CC(C)(C)CC(=O)NNC(=O)c1cnccn1`, for which the Kd was > 4 mM (inactive). Regarding `Cc1ccc(C(=O)N2CCC(C(=O)O)CC2)cc1`, the Kd was > 4 mM (inactive). Then `Cc1cccc(C)c1NC(=O)/C=C/C(=O)O`, with > 4 mM (inactive). On to `Cc1nc(-c2cccc(C(=O)O)c2)cs1`, for which the Kd was > 4 mM (inactive).

For the compound `O=C(O)C1CNc2ccccc2O1` (centres undefined), the Kd was > 4 mM (inactive).

Take `C[C@@H]1CCC2[C@](C)(CO)[C@@H](O)CC[C@]2(C)[C@@]12CC[C@@](CO)(CCO)O2` (some centres undefined): the Kd is > 4 mM (inactive).

Consider `CCOc1cc(S(=O)(=O)n2nc(C)cc2C)ccc1F`, for which the Kd is > 4 mM (inactive). Then `CC(=O)Nc1ccc(NC(=O)c2ccnn2C)cc1`, with > 4 mM (inactive). `COc1cc(/C=C/C(=O)/C=C(O)/C=C/c2ccc(O)c(OC)c2)ccc1O`: the Kd was > 4 mM (inactive). Regarding `O=c1[nH]cc(NCc2ccccc2)c(=O)[nH]1`, the Kd was > 4 mM (inactive). On to `Cn1c(=O)c2ccccc2n(Cc2ccccc2F)c1=O`, for which the Kd is > 4 mM (inactive). `CNC(=S)Nc1cccc(C(=O)O)c1`: the Kd is > 4 mM (inactive). Regarding `CCCCn1c(=O)cc(O)c2ccccc21`, the Kd was > 4 mM (inactive). `CSc1nnc(-c2ccccc2NC(C)=O)o1`: the Kd is > 4 mM (inactive). As for `COc1cc2cc3c4cc(OC)c(OC)cc4cc[n+]3c(C)c2cc1OC`, the Kd is > 4 mM (inactive). As for `C[C@@H]1CC[C@@]23CCC4(C)[C@@](C=CC5[C@@]6(C)CCC(=O)C(C)(C)C6CC[C@]54C)(OC2=O)C3[C@H]1C` (some centres undefined), the Kd was > 4 mM (inactive). As for `CC(C)(CO)NC(=O)c1ccccc1F`, the Kd was > 4 mM (inactive). Take `Cc1ccccc1N1CCN(C(=O)C2CCCCC2)CC1`: the Kd is > 4 mM (inactive). For `c1ccc(SCc2nc(-c3ccccn3)no2)cc1`, the Kd was > 4 mM (inactive).

Regarding `CC1(C)CC23C(=O)CCC(O)C2(C)CCC13` (centres undefined), the Kd was > 4 mM (inactive). Regarding `Oc1cnc2ccccc2c1CN1CCOCC1`, the Kd was > 4 mM (inactive). Consider `COCC(=O)Nc1ccc(C)c(Cl)c1`, for which the Kd was > 4 mM (inactive).

Consider `Cc1ccc(C(=O)N2CCOCC2)cc1Cl`, for which the Kd is > 4 mM (inactive). Consider `O=C1Nc2ccccc2C1(O)Cc1ccncc1` (centres undefined), for which the Kd was > 4 mM (inactive).

Turning to `COc1cc([C@H]2Oc3cc([C@H]4Oc5cc(O)cc(O)c5C(=O)[C@@H]4O)ccc3O[C@@H]2CO)ccc1O`, the Kd was > 4 mM (inactive).

As for `COC(=O)c1ccccc1NC(=O)c1cc[n+]([O-])cc1`, the Kd was > 4 mM (inactive).

As to `CCCCCCCCCCCCCCC(C(=O)O)C(O)(CC(=O)OC)C(=O)O` (centres undefined), the Kd is > 4 mM (inactive). Next, `CS(=O)(=O)NC1CCN(Cc2ccccc2)CC1`: > 4 mM (inactive). Take `Nc1cccc(-n2cccc2)c1`: the Kd was > 4 mM (inactive). `Cc1nnc(SCc2ccon2)n1-c1ccccc1`: the Kd was > 4 mM (inactive). On to `Cc1cc(C(=O)Nc2cccnc2)no1`, for which the Kd is > 4 mM (inactive). Consider `CCOCC(=O)N1CCc2ccccc21`, for which the Kd was > 4 mM (inactive).

Regarding `O=C(O)CCCCCCCCCCCCC1C=CCC1` (centres undefined), the Kd was > 4 mM (inactive). Consider `O=C(c1cnsn1)N1CCN(c2ccccc2)CC1`, for which the Kd was > 4 mM (inactive). Regarding `Cc1ccc(C)c(S(=O)(=O)NCc2cccnc2)c1`, the Kd was > 4 mM (inactive). Take `CC(=O)Nc1cccc(-c2n[nH]c(=S)n2C)c1`: the Kd was > 4 mM (inactive). Next, `CC(=O)Nc1cccc(Cn2cccn2)c1`: > 4 mM (inactive); `C=C1C[C@]23C[C@@]1(O)CC[C@H]2[C@@]12C=C[C@H](O)C(C)(C(=O)O1)[C@H]2[C@@H]3C(=O)O`: > 4 mM (inactive). Take `S=c1[nH]nc(-c2cccnc2)n1Cc1ccccc1`: the Kd was > 4 mM (inactive). As to `COC(=O)C1=CO[C@@H](O[C@@H]2O[C@H](CO)[C@@H](O)[C@H](O)[C@H]2O)[C@@H]2[C@@H](C)[C@@H](O)C[C@H]12`, the Kd is > 4 mM (inactive). In the case of `CC(=O)Nc1ccc(NC2SC(=O)NC2=O)cc1` (centres undefined), the Kd was > 4 mM (inactive). Regarding `COC(=O)c1c(OC)cc2c(c1C)Oc1c(Cl)c(OC(C)=O)c(Cl)c(C)c1C(=O)O2`, the Kd is > 4 mM (inactive). Next, `Cc1c(N=Cc2ccc[nH]2)c(=O)n(-c2ccccc2)n1C`: > 4 mM (inactive); `NC(=O)C1CCN(C2CC(=O)NC2=O)CC1` (centres undefined): > 4 mM (inactive); `COc1cc(C)c(Cl)cc1S(=O)(=O)N(C)C`: > 4 mM (inactive). For the compound `COC(=O)c1noc(-c2ccc(OC)cc2)n1`, the Kd is > 4 mM (inactive).

In the case of `Oc1cc(O)cc(/C=C/c2ccccc2)c1`, the Kd was > 4 mM (inactive). `CNC(=O)c1cc(S(=O)(=O)N(C)C)ccc1Cl`: the Kd is > 4 mM (inactive).

Turning to `NC(=O)c1oc2ccccc2c1N`, the Kd was > 4 mM (inactive). In the case of `O=C(Nc1ccc2c(c1)OCO2)c1cccs1`, the Kd was > 4 mM (inactive). Next, `CC(=O)NC(=S)Nc1nc2ccccc2n1C(C)=O`: > 4 mM (inactive); `O=C1CSC(=S)N1Cc1cccnc1`: > 4 mM (inactive).

As to `Cc1ccc(C)n1NC(=O)c1ccco1`, the Kd is > 4 mM (inactive). For `O=C(O)Cc1nc(-c2ccncc2)n[nH]1`, the Kd is > 4 mM (inactive). Then `CC1(C)C(=O)C=C[C@@]2(C)C1C[C@@H](O)[C@]1(C)C2CC[C@@]2(C)[C@H](c3ccoc3)OC(=O)[C@H]3O[C@]321` (some centres undefined), with > 4 mM (inactive); and `Cn1cccc1C=C1C(=O)NC(=S)NC1=O`, with > 4 mM (inactive).

As for `Nc1nc(NCc2ccco2)nn1-c1ccccc1`, the Kd was > 4 mM (inactive). With `Cc1nnc(SCC(=O)N2CCc3ccccc32)s1`, the Kd is > 4 mM (inactive).

For `CC(=O)Oc1ccc(-c2cc(=O)c3c(OC(C)=O)cc(OC(C)=O)cc3o2)cc1`, the Kd is > 4 mM (inactive). Take `CN=C1SC(CC(=O)Nc2ccc(O)cc2)C(=O)N1C` (centres undefined): the Kd is > 4 mM (inactive). Turning to `CN(C)CC(O)C1CCOC(C)(C)C1` (centres undefined), the Kd is > 4 mM (inactive). As to `CC1(C)C=Cc2cc3ccc(=O)oc3cc2O1`, the Kd is > 4 mM (inactive). Next, `COC(=O)Nc1ccc2ncn(C)c(=O)c2c1`: > 4 mM (inactive); `Cc1nc2nc(COc3ccccc3)nn2c(C)c1Cl`: > 4 mM (inactive); `COC(=O)CCC(C)C1CCC2C3CCC4C[C@H](O)CC[C@]4(C)C3C[C@H](O)[C@]12C` (some centres undefined): > 4 mM (inactive). As to `CC(C)NC(=O)c1nc2ccccc2s1`, the Kd was > 4 mM (inactive).

As to `CCN1CCN(CCCNc2ncnc3nc[nH]c23)CC1`, the Kd was > 4 mM (inactive).

For `CCS(=O)(=O)N1CCN(c2ccccc2F)CC1`, the Kd was > 4 mM (inactive). As for `CC(C)=NNC(=O)c1ccccc1`, the Kd was > 4 mM (inactive).

Regarding `Nc1ccc(-n2cccc2)cc1`, the Kd is > 4 mM (inactive). For the compound `CC1SC(=NC(=O)c2ccco2)NC1=O` (centres undefined), the Kd was > 4 mM (inactive). With `O=C(O)c1cc(=O)[nH]c2ccccc12`, the Kd was > 4 mM (inactive).

Take `Cc1ccc2c(c1)CC[C@H]1CC(=O)CC[C@]21C`: the Kd is > 4 mM (inactive).

In the case of `CC(=O)c1c(C)nn(CC(=O)O)c1C`, the Kd is > 4 mM (inactive). In the case of `O=C1C2CCCCC2C(=O)N1Cc1cccnc1` (centres undefined), the Kd is > 4 mM (inactive). For `Cn1nc(C(C)(C)C)cc1N`, the Kd is > 4 mM (inactive).

Regarding `C=C1C(N)CC2CC1C2(C)C` (centres undefined), the Kd was > 4 mM (inactive).

In the case of `COc1ccc(N2CC(=O)NC2=O)cc1`, the Kd was > 4 mM (inactive).

Consider `COCCn1c(SC)nc2c1c(=O)[nH]c(=O)n2C`, for which the Kd is > 4 mM (inactive).

For `O=C(c1ncc[nH]1)c1ccccc1C(=O)N1CCOCC1`, the Kd is > 4 mM (inactive). In the case of `NS(=O)(=O)c1ccc(NC(=O)C(F)(F)F)cc1`, the Kd is > 4 mM (inactive). For `COc1ccc(C)cc1S(=O)(=O)Nc1ccccc1C`, the Kd is > 4 mM (inactive). `CC(=O)OC[C@H]1O[C@@H](Oc2cc(OC(C)=O)c3c(=O)cc(-c4ccc(OC(C)=O)cc4)oc3c2)[C@H](OC(C)=O)[C@@H](OC(C)=O)[C@@H]1OC(C)=O`: the Kd is > 4 mM (inactive). Turning to `O=C1NC(=Nc2ccc(O)cc2)S/C1=C/c1ccco1`, the Kd was > 4 mM (inactive). For the compound `O=C1NC(=S)N/C1=C\c1cccc([N+](=O)[O-])c1`, the Kd is > 4 mM (inactive). As to `O=c1c(Cl)c(NCCO)ncn1-c1ccccc1`, the Kd is > 4 mM (inactive). `CC(=O)N1CCc2cc(NC(=O)c3ccc(C)cc3)ccc21`: the Kd was > 4 mM (inactive).
